Laboratory results taken from patent publication US9138479B2, “Formulations for the treatment of diabetes” (XERIS PHARMACEUTICALS, INC., priority 2011, dated 2015).

Assay: Pramlintide solubility in DMSO and DMSO-water co-solvents (visual inspection)
Assay type: physicochemical
Settings: pH memory 2.0; 20 mg/mL in neat DMSO
Description: • 3b. […] The resulting solutions are assessed visually for clarity and/or analyzed for light scattering using visible spectroscopy at […], and used in various downstream applications.
Solutions of pramlintide were prepared at a concentration of 2 mg/mL in 10 mM citrate, pH 2.0, or 10 mM citrate, pH 4.0, each with or without 2 mg/mL trehalose. The solutions were dried by centrifugation under vacuum for approximately 3.5 hours at 25-30° C., or lyophilized as described above.

SMILES: CC[C@H](C)[C@H](NC(=O)[C@@H]1CCCN1C(=O)CNC(=O)[C@H](Cc1ccccc1)NC(=O)[C@H](CC(N)=O)NC(=O)[C@H](CC(N)=O)NC(=O)[C@H](CO)NC(=O)[C@H](CO)NC(=O)[C@H](Cc1c[nH]cn1)NC(=O)[C@@H](NC(=O)[C@H](CC(C)C)NC(=O)[C@H](Cc1ccccc1)NC(=O)[C@H](CC(N)=O)NC(=O)[C@H](C)NC(=O)[C@H](CC(C)C)NC(=O)[C@H](CCCNC(=N)N)NC(=O)[C@H](CCC(N)=O)NC(=O)[C@@H](NC(=O)[C@H](C)NC(=O)[C@@H]1CSSC[C@H](NC(=O)[C@@H](N)CCCCN)C(=O)N[C@@H](CC(N)=O)C(=O)N[C@@H]([C@@H](C)O)C(=O)N[C@@H](C)C(=O)N[C@@H]([C@@H](C)O)C(=O)N1)[C@@H](C)O)C(C)C)C(=O)N[C@@H](CC(C)C)C(=O)N1CCC[C@H]1C(=O)N1CCC[C@H]1C(=O)N[C@H](C(=O)N[C@@H](CC(N)=O)C(=O)N[C@H](C(=O)NCC(=O)N[C@@H](CO)C(=O)N[C@@H](CC(N)=O)C(=O)N[C@H](C(=O)N[C@@H](Cc1ccc(O)cc1)C(N)=O)[C@@H](C)O)C(C)C)[C@@H](C)O [pramlintide]
- appearance of solution by visual inspection: flowable and completely clear
